Among the test systems are A498 renal; IGROV1 ovarian; MALME-3M melanoma; MOLT-4 leukemia; NCI-H226 lung; NCI-H522 lung; OVCAR-8 ovarian; PC-3 prostate; SN12C renal; UO-31 renal.
Common to all, as to experiment: NCI anticancer screen, dose series, 48 h

“And” between values parts separate entries of the source, which are not always exact repeats. Equal values may be shown once.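 Test compounds were applied to cells in 96-well plates for 48 hours at 5 doses. GI50 marks 50% less growth. TGI: concentration producing complete growth inhibition.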 Where only a bound is given, the exact number is not on record here.

Consider `CCOC(=O)C#Cc1c(C(=O)OCC)nnn1[C@@H]1O[C@H](COC)[C@@H](OC)[C@H]1OC`, for which the GI50 was 18200 nM in the assay on A498 renal; 18400 nM with IGROV1 ovarian; 1950 nM in the assay on MALME-3M melanoma; 1920 nM in the assay with MOLT-4 leukemia; 1650 nM in the assay on NCI-H226 lung; 1970 nM in the assay with NCI-H522 lung. The GI50 in the assay on OVCAR-8 ovarian was 6940 nM; in the assay with PC-3 prostate, 16700 nM; in the assay on SN12C renal it was 3810 nM; in the assay with UO-31 renal, 1880 nM. The TGI in the assay with A498 renal is 32.9 µM; in the assay on IGROV1 ovarian, 39.6 µM; in the assay with MALME-3M melanoma it was 3.9 µM; in the assay with MOLT-4 leukemia, 4.39 µM; in the assay on NCI-H226 lung, 3.18 µM; with NCI-H522 lung, 3.9 µM. The TGI was 21.7 µM in the assay with OVCAR-8 ovarian, 31.7 µM in the assay on PC-3 prostate, 14.6 µM with SN12C renal and 4.38 µM with UO-31 renal.
As for `O=C1C[C@@H]2OCC=C3C[N+]4([O-])CC[C@]56c7ccccc7N1[C@H]5[C@H]2[C@H]3C[C@@H]64` (stereo not given in full), the GI50 with A498 renal, in the assay with IGROV1 ovarian, in the assay with MALME-3M melanoma, in the assay on MOLT-4 leukemia, with NCI-H226 lung and in the assay on NCI-H522 lung was greater than 100000 nM in each case. For the same molecule, the GI50 with OVCAR-8 ovarian, in the assay on PC-3 prostate, in the assay on SN12C renal and in the assay with UO-31 renal was greater than 100000 nM each time. Also, the TGI in the assay with A498 renal, with IGROV1 ovarian, in the assay on MALME-3M melanoma, in the assay on MOLT-4 leukemia, in the assay on NCI-H226 lung and with NCI-H522 lung was greater than 100 µM each time. Further, the TGI with OVCAR-8 ovarian, with PC-3 prostate, in the assay with SN12C renal and in the assay on UO-31 renal was greater than 100 µM each time.
As to `COc1ccc([C@@H]2[C@@H](Oc3ccccc3)C(=O)N2c2cc(OC)c(OC)c(OC)c2)cc1F`, the GI50 was 23.8 nM in the assay with A498 renal; 257 nM with IGROV1 ovarian; greater than 100000 nM in the assay with MALME-3M melanoma; 345 nM with MOLT-4 leukemia; 990 nM in the assay on NCI-H226 lung; 27.6 nM in the assay with NCI-H522 lung. Further, the GI50 was 189 nM with OVCAR-8 ovarian, 230 nM in the assay with PC-3 prostate, 383 nM in the assay on SN12C renal and 562 nM in the assay with UO-31 renal. Moreover, the TGI was 0.0983 µM in the assay on A498 renal; greater than 100 µM with IGROV1 ovarian; greater than 100 µM in the assay on MALME-3M melanoma; greater than 100 µM in the assay with MOLT-4 leukemia; greater than 100 µM in the assay with NCI-H226 lung; 0.332 µM in the assay on NCI-H522 lung. The TGI with OVCAR-8 ovarian, in the assay on PC-3 prostate, with SN12C renal and with UO-31 renal was greater than 100 µM in each case.
Take `Cc1cccc(Oc2ccc(Nc3ncnc4ccc(NC(=O)CN(C)C)cc34)cc2Cl)c1`: the GI50 with A498 renal is 1800 nM; in the assay with IGROV1 ovarian it was 376 nM; in the assay on MALME-3M melanoma, 1720 nM; in the assay on MOLT-4 leukemia, 2370 nM; with NCI-H226 lung, 11900 nM; in the assay on NCI-H522 lung it was 244 nM. The GI50 in the assay on OVCAR-8 ovarian was 2720 nM; with PC-3 prostate, 2020 nM; with SN12C renal it was 1340 nM; in the assay on UO-31 renal, 1120 nM. Also, the TGI in the assay on A498 renal is 9.18 µM; in the assay with IGROV1 ovarian it was 2.41 µM; in the assay on MALME-3M melanoma, 3.35 µM; in the assay with MOLT-4 leukemia, 6.82 µM; in the assay with NCI-H226 lung it was 28.3 µM; in the assay with NCI-H522 lung, 1.98 µM. Also, the TGI in the assay on OVCAR-8 ovarian came to 11.3 µM; in the assay with PC-3 prostate, 6.32 µM; in the assay on SN12C renal, 3.13 µM; in the assay with UO-31 renal it was 2.47 µM.
For the molecule `N=C(N)SCc1ccc(Cl)c2ccccc12` (tested in a mixture with another compound), the TGI with A498 renal is 22.5 µM and 23.2 µM; with IGROV1 ovarian, 29 µM and 30.8 µM; in the assay with MALME-3M melanoma, 22.1 µM and 23.4 µM; with MOLT-4 leukemia it was 17.3 µM and 4.25 µM; in the assay on NCI-H226 lung, 30.3 µM and 28.6 µM; with NCI-H522 lung, 18.7 µM and 23.9 µM. Moreover, the TGI with OVCAR-8 ovarian is 50.1 µM and > 77.8 µM; in the assay with PC-3 prostate, 24.3 µM and 25.3 µM; in the assay with SN12C renal, 24.3 µM and 24.9 µM; in the assay with UO-31 renal, 24.3 µM and 26.3 µM.

The values above are taken from PubChem BioAssay (NCI).
